Consider 1 molecule from patent publication US10335382B2, “Use of hydrogen sulfide synthesis inhibitors for cancer therapy” (THE BOARD OF REGENTS OF THE UNIVERSITY OF TEXAS SYSTEM, priority 2013, dated 2019).

Each structure is given as a SMILES string.

Test [1] concerns human endothelial cells (EAhy926). The test can be described thus: Endothelial cell migration in co-culture with HCT116. The test is classed as cell-based. As to conditions: 4 hours at 37° C. Here is the method: FIG. 3. […] (A, B) The lentiviral shRNA vectors targeting CBS (shCBS) and CSE (shCSE) were transfected into HCT116 cells. A non-targeting sequence was used as control (shNT). […] Following CBS and CSE silencing, cells were seeded at the density of 3000 cells/well in xCELLigence plates and proliferation was monitored for 36 hours. […] The NCM356 cells were infected overnight with a CBS expressing adenovirus (Ad-CBS, 10 multiplicity of infection (MOI)) or its control, a green fluorescent protein (Ad-GFP). The culture media was then replaced and cells were seeded in XCelligence plates at 3000 cells/well. Cell proliferation was then measured real-time over 36 hours. […] (H, I) The effect of AOAA and NaHS was also tested on HCT116 cell migration (H) and invasion (I). […]
Cellular migration and invasion assays were performed as described (Chao et al. (1996) Cancer Res. 56:4811-19). […] Migrated and invaded cells were then fixed in Carson's fixative, stained in 0.33% toluidine blue and quantified by visual counting. For the HCT116-EAhy926 co-culture experiment, the cancer cell line was grown to confluence in the bottom wells of the transwell chambers and then endothelial cell migration was assessed (Coletta et al. (2012) Proc Natl Acad Sci USA. 109:9161-66).

Another test relates to HCT116 tumor xenografts. Nature of the test: HCT116 tumor xenograft in nude mice. The format is in vivo, Nu/nu Balb/C female mice. The conditions noted are these: AOAA 9 mg/kg/day s.c. Here is the method:
Nu/nu Balb/C female mice (8-10 weeks) were injected subcutaneously in the right and left dorsum (10^6 cells/side with HCT-116 cells). One week later, the mice were randomized and subcutaneous injections of phosphate buffered saline (PBS) or AOAA (9 mg/kg/day) were performed 6 days/week. Tumor diameters were measured transcutaneously using calipers and tumor volumes were calculated using the formula V=(π/6)hd^2. T-test comparisons of the tumor volumes and final weights at harvest were performed. Xenotrials with patient-derived xenografts (PTX) were performed on nu/nu mice implanted subcutaneously with a piece of Passage 2 tumor measuring 2-5 mm^3 each. When a small palpable tumor was evident at 7-10 days, the mice with tumor take were randomized and subjected to subcutaneous injection of vehicle or AOAA (9 mg/kg/day) 6 days/week. Specimens were fixed with 10% formalin and embedded in paraffin. 5 μm sections were stained with hematoxylin and eosin. Each in vivo experiment was repeated at least twice.
Tissue preparation, immunostaining of CD31, and evaluation of microvessel density with the Chakley reticle was performed as described (Chao et al. (1996) Cancer Res. 56:4811-19).
Nu/nu Balb/c female mice (8-10 weeks) were injected subcutaneously in the right and left dorsum (10^6 cells/side with HCT116 cells). One week later, the mice were randomized and subcutaneous injection of phosphate buffered saline (PBS control) or YD2-51 (0.1, 0.5 or 1 mg/kg) was performed 6 days/week. Tumor volumes and final weights at harvest (post-tumor injection Day 28) were performed and tumor weight/animal weight ratios calculated.

The subject of a further test is HCT116 colon cancer cell. Nature of the test: HCT116 colon cancer cell proliferation (xCELLigence). The format is cell-based, human. The conditions noted are these: AOAA 1 mM; 36 hours.
The target of another test is T1, CBS (Homo sapiens, UniProt P35520).
T1 sequence (P35520 1-551): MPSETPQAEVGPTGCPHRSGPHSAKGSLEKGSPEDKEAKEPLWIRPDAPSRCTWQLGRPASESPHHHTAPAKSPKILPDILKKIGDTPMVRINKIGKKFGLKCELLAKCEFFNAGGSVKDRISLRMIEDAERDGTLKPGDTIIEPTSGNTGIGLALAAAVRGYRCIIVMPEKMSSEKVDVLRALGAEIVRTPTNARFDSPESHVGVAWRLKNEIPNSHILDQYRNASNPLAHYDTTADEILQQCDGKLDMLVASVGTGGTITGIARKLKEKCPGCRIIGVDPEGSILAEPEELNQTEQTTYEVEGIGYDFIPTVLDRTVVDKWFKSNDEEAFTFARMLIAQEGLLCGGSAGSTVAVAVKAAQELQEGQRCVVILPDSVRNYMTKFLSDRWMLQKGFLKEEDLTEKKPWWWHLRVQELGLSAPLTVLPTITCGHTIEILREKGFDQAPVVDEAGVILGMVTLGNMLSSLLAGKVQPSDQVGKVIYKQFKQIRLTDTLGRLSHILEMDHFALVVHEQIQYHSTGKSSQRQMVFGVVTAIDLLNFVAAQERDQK
Set-up: These studies used full-length human CBS enzyme; made in house; host or cells: E. coli BL21 (DE3) Codon Plus. As to conditions: cited from earlier work.

For the molecule `NOCC(=O)O` [AOAA, aminooxyacetic acid], the “HCT116-induced endothelial cell migration” value in test [1] is “reduced”. In addition, in the test on HCT116 tumor xenografts (6 days/week), the “rate of HCT116 xenograft growth” value is “significantly slowed”; the “tumor size and weight at harvest” value is “reduced size and weight”. Besides, the “plasma concentration of H2S” value with HCT116 tumor xenografts (tumor-bearing mice) is listed as “reduction”. The HCT116 cell proliferation entry in the test on HCT116 colon cancer cell was “markedly reduced”. Further, the “concentrations exerting inhibitory effects on human recombinant CBS” value at CBS is given as “low micromolar concentrations”.
